Assay results taken from ChEMBL document CHEMBL6127131, “Design, Synthesis, and Biological Evaluation of New Selective PDE4 Inhibitors for Topical Treatment of Psoriasis” (J Med Chem, 2024).
Each block holds one compound with its values, some of them ahead of it. Active and inactive are the calls of the source. The calls are words filed in the database; no cut-off is given here.

Experiments:
[1] = Drug concentration in ICR(CD-1) mouse blood at 1.2% administered topically and measured after 2 hrs by LC-MS/MS analysis; format: ADME, tissue-based; conditions: topical or ocular, route top, read-out: Ct
RAW264.7 [2] = test: Downregulation of IL-1beta mRNA expression in LPS induced mouse RAW264.7 cells at 5 to 20 uM preincubated for 12 hrs followed by LPS stimulation for 4 hrs by RT-qPCR analysis; format: functional, cell-based; conditions: dose 5-20 µM, time 16.0 hrs
RAW264.7 [3] = test: Upregulation of EPAC1 protein expression in mouse RAW264.7 cells at 5 to 20 uM preincubated for 12 hrs followed by LPS stimulation for 4 hrs by Western blotting analysis; format: functional, cell-based; conditions: dose 5-20 µM, time 16.0 hrs
[4] = target: Cannabinoid receptor 1 (Homo sapiens) (UniProt P21554); test: Inhibition of CB1 (unknown origin) at 10 uM relative to control
Chain of Cannabinoid receptor 1 (Homo sapiens) (P21554 whole entry): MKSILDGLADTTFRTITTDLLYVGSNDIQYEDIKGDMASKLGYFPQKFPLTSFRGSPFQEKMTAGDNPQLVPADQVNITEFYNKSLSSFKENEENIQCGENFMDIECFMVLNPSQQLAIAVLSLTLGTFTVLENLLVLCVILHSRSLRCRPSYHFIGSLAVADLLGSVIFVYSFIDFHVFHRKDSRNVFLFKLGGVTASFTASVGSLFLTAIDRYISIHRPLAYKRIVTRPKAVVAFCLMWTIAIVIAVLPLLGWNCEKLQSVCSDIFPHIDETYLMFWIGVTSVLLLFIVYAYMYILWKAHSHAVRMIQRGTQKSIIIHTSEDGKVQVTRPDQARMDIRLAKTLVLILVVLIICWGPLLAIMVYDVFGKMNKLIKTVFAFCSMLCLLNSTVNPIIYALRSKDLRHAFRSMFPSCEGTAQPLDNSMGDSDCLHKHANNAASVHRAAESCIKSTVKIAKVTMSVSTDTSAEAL

Mus musculus [5] = test: Antiinflammatory activity against imiquimod-induced psoriasis in BALB/c mouse model assessed as reduction in immune cell infiltration at 0.3 to 1.2% administration as ointment pretreated with IMQ for 4 hrs followed by compound addition once daily from day 2 to 8 by H and E staining based assay; format: functional, organism-based; conditions: dose 0.3-1.2 %, time 7.0 day
[6] = Metabolic stability in monkey liver microsomes assessed as half-life preincubated for 2 hrs followed by NADPH regenerating agent addition and measured upto 4 hrs by LC-MS analysis; format: ADME, Macaca mulatta, Microsome; conditions: rhesus monkey, time < 6 hrs
[7] = Clearance in ICR(CD-1) mouse at 5 mg/kg, iv measured upto 24 hrs by LC-MS/MS analysis; format: ADME, organism-based; conditions: in vivo
[8] = Half-life in ICR(CD-1) mouse at 5 mg/kg, iv measured upto 24 hrs by LC-MS/MS analysis; format: ADME, organism-based; conditions: in vivo
[9] = Half-life in ICR(CD-1) mouse at 10 mg/kg, po measured upto 24 hrs by LC-MS/MS analysis; format: ADME, organism-based; conditions: in vivo
RAW264.7 [10] = test: Downregulation of IL-17A mRNA expression in LPS induced mouse RAW264.7 cells at 5 to 20 uM preincubated for 12 hrs followed by LPS stimulation for 4 hrs by RT-qPCR analysis; format: functional, cell-based; conditions: dose 5-20 µM, time 16.0 hrs
HaCaT = test: Anti-inflammatory activity against M5 induced human HaCaT cells assessed as reduction in TNFalpha secretion incubated for 24 hrs by ELISA; format: functional, cell-based
[11] = target: D(2) dopamine receptor (Homo sapiens) (UniProt P14416); test: Inhibition of D2S (unknown origin) at 10 uM relative to control
Chain of D(2) dopamine receptor (Homo sapiens) (P14416 whole entry): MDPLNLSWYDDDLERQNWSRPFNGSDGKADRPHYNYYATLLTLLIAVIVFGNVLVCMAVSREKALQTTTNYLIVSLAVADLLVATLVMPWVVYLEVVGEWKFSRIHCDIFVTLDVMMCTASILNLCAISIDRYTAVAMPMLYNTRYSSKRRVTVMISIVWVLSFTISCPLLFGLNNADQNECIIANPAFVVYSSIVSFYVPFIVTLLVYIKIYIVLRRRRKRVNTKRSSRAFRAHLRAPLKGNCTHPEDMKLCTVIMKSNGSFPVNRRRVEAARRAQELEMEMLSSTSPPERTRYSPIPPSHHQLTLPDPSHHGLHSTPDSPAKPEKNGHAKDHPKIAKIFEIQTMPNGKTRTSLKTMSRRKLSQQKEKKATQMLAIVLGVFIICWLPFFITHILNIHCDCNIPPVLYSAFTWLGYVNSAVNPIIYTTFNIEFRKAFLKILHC

[12] = Apparent volume of distribution in ICR(CD-1) mouse at 5 mg/kg, iv measured upto 24 hrs by LC-MS/MS analysis; format: ADME, organism-based; conditions: in vivo, read-out: Vz
RAW264.7 [13] = test: Upregulation of p-CREB1/CREB1 protein ratio in mouse RAW264.7 cells at 5 to 20 uM preincubated for 12 hrs followed by LPS stimulation for 4 hrs by Western blotting analysis; format: functional, cell-based; conditions: dose 5-20 µM, time 16.0 hrs
[14] = Oral bioavailability in ICR(CD-1) mouse at 10 mg/kg measured upto 24 hrs by LC-MS/MS analysis; format: ADME, organism-based; conditions: in vivo
[15] = target: 5-hydroxytryptamine receptor 1B (Homo sapiens) (UniProt P28222); test: Inhibition of 5-HT1B (unknown origin) at 10 uM relative to control
Chain of 5-hydroxytryptamine receptor 1B (Homo sapiens) (P28222 whole entry): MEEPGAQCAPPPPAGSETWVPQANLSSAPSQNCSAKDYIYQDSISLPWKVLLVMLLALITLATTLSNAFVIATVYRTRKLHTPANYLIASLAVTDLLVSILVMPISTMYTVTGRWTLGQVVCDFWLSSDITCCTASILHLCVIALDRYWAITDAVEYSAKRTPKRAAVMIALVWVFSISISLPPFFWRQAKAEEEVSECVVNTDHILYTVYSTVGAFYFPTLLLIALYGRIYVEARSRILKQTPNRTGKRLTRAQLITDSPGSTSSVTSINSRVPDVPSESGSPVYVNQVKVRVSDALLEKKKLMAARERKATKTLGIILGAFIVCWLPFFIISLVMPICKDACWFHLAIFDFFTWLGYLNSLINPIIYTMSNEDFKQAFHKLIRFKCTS

Mus musculus [16] = species: Mus musculus; test: Antiinflammatory activity against imiquimod-induced psoriasis in BALB/c mouse model assessed as improvement in clinical features of skin lesions pretreated with IMQ for 4 hrs followed by compound addition once daily from day 2 to 8; format: functional, organism-based; conditions: dose 0.3-1.2 %, time 7.0 day
Mus musculus [17] = test: Antiinflammatory activity against imiquimod-induced psoriasis in BALB/c mouse model assessed as reduction in IL-17A protein level at 1.2% administration as ointment pretreated with IMQ for 4 hrs followed by compound addition once daily from day 2 to 8 by ELISA; format: functional, organism-based; conditions: time 7.0 day
Mus musculus [18] = test: Antiinflammatory activity against imiquimod-induced psoriasis in BALB/c mouse model assessed as reduction in skin thickness at 0.3 to 1.2% administration as ointment pretreated with IMQ for 4 hrs followed by compound addition once daily from day 2 to 8 by H and E staining based assay; format: functional, organism-based; conditions: dose 0.3-1.2 %, time 7.0 day
Mus musculus [19] = test: Antiinflammatory activity against imiquimod-induced psoriasis in BALB/c mouse model assessed as reduction in spleen enlargement at 0.3 to 1.2% administration as ointment pretreated with IMQ for 4 hrs followed by compound addition once daily from day 2 to 8; format: functional, organism-based; conditions: dose 0.3-1.2 %, time 7.0 day
[20] = Metabolic stability in mouse liver microsomes assessed as half-life preincubated for 2 hrs followed by NADPH regenerating agent addition and measured upto 4 hrs by LC-MS analysis; format: ADME, Microsome; conditions: time < 6 hrs
[21] = Cytotoxicity against mouse RAW264.7 cells incubated for 24 hrs by CCK8 assay; format: toxicity, cell-based
RAW264.7 [22] = test: Anti-inflammatory activity against LPS induced mouse RAW264.7 cells assessed as reduction in IL-6 secretion incubated for 24 hrs by ELISA; format: functional, cell-based; conditions: RAW264.7, 24 h
[23] = target: 3',5'-cyclic-AMP phosphodiesterase 4A (Homo sapiens, UniProt P27815); test: Inhibition of PDE4A (unknown origin)
Chain of 3',5'-cyclic-AMP phosphodiesterase 4A (P27815 whole entry): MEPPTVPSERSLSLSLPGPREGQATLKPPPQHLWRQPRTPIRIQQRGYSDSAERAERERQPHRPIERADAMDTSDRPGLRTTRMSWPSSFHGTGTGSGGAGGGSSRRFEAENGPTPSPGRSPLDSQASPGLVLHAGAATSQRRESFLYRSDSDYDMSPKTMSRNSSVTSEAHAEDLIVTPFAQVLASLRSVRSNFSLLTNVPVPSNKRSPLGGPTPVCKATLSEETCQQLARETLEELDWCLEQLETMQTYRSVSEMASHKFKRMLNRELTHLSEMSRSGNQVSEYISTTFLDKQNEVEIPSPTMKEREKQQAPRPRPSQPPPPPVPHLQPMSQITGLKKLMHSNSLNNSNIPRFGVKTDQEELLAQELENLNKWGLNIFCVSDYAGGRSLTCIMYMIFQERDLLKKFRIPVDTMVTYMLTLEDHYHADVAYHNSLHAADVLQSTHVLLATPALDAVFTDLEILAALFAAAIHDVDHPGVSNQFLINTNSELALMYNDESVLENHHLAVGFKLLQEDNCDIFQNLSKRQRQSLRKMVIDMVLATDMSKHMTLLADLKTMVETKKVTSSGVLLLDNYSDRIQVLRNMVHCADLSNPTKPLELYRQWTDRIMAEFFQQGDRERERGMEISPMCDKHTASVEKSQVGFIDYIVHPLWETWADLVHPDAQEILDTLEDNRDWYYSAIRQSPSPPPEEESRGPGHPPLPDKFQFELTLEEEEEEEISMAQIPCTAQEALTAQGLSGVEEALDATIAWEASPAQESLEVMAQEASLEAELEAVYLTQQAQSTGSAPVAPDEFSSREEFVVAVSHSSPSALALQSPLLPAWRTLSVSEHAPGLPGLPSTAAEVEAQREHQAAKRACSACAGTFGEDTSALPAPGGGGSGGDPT

RAW264.7 [24] = test: Downregulation of IL-6 mRNA expression in LPS induced mouse RAW264.7 cells at 5 to 20 uM preincubated for 12 hrs followed by LPS stimulation for 4 hrs by RT-qPCR analysis; format: functional, cell-based; conditions: dose 5-20 µM, time 16.0 hrs
[25] = AUC(0 to t) in ICR(CD-1) mouse at 5 mg/kg, iv measured upto 24 hrs by LC-MS/MS analysis; format: ADME, organism-based; conditions: in vivo
[26] = Metabolic stability in dog liver microsomes assessed as half-life preincubated for 2 hrs followed by NADPH regenerating agent addition and measured upto 4 hrs by LC-MS analysis; format: ADME, Canis lupus familiaris, Microsome; conditions: time < 6 hrs
[27] = AUC(0 to infinity) in ICR(CD-1) mouse at 10 mg/kg, po measured upto 24 hrs by LC-MS/MS analysis; format: ADME, organism-based; conditions: in vivo
RAW264.7 [28] = test: Anti-inflammatory activity against LPS induced mouse RAW264.7 cells assessed as reduction in TNFalpha secretion incubated for 24 hrs by ELISA; format: functional, cell-based; conditions: RAW264.7, 24 h
[29] = Metabolic stability in rat liver microsomes assessed as half-life preincubated for 2 hrs followed by NADPH regenerating agent addition and measured upto 4 hrs by LC-MS analysis; format: ADME, Microsome; conditions: time < 6 hrs
Mus musculus [30] = test: Antiinflammatory activity against imiquimod-induced psoriasis in BALB/c mouse model assessed as reduction in IL-1beta protein level at 1.2% administration as ointment pretreated with IMQ for 4 hrs followed by compound addition once daily from day 2 to 8 by ELISA; format: functional, organism-based; conditions: time 7.0 day
[31] = Tmax in ICR(CD-1) mouse at 10 mg/kg, po measured upto 24 hrs by LC-MS/MS analysis; format: ADME, organism-based; conditions: in vivo
RAW264.7 [32] = test: Downregulation of TNFalpha mRNA expression in LPS induced mouse RAW264.7 cells at 5 to 20 uM preincubated for 12 hrs followed by LPS stimulation for 4 hrs by RT-qPCR analysis; format: functional, cell-based; conditions: dose 5-20 µM, time 16.0 hrs
[33] = Drug concentration in ICR(CD-1) mouse blood at 1.2% administered topically and measured after 1 hr by LC-MS/MS analysis; format: ADME, tissue-based; conditions: topical or ocular, route top, read-out: Ct
[34] = AUC(0 to infinity) in ICR(CD-1) mouse at 5 mg/kg, iv measured upto 24 hrs by LC-MS/MS analysis; format: ADME, organism-based; conditions: in vivo
[35] = AUC(0 to t) in ICR(CD-1) mouse at 10 mg/kg, po measured upto 24 hrs by LC-MS/MS analysis; format: ADME, organism-based; conditions: in vivo
[36] = Metabolic stability in human liver microsomes assessed as half-life preincubated for 2 hrs followed by NADPH regenerating agent addition and measured upto 4 hrs by LC-MS analysis; format: ADME, Microsome; conditions: time < 6 hrs
[37] = Cmax in ICR(CD-1) mouse at 10 mg/kg, po measured upto 24 hrs by LC-MS/MS analysis; format: ADME, organism-based; conditions: in vivo
[38] = Toxicity in BALB/c mouse assessed as body weight loss at 0.3 to 1.2% administration as ointment once a day from day 2 to 8; conditions: in vivo, topical_or_ocular, 168 h, dose 0.3-1.2 %, time 7 day
[39] = Cytotoxicity against human HaCaT cells incubated for 24 hrs by CCK8 assay; format: toxicity, cell-based
[40] = Initial plasma concentration in ICR(CD-1) mouse at 5 mg/kg, iv measured upto 24 hrs by LC-MS/MS analysis; format: ADME, organism-based
[41] = target: T1, 3',5'-cyclic-AMP phosphodiesterase 4D (Homo sapiens, UniProt Q08499); test: Inhibition of PDE4D (unknown origin)
T1 sequence (Q08499 whole entry): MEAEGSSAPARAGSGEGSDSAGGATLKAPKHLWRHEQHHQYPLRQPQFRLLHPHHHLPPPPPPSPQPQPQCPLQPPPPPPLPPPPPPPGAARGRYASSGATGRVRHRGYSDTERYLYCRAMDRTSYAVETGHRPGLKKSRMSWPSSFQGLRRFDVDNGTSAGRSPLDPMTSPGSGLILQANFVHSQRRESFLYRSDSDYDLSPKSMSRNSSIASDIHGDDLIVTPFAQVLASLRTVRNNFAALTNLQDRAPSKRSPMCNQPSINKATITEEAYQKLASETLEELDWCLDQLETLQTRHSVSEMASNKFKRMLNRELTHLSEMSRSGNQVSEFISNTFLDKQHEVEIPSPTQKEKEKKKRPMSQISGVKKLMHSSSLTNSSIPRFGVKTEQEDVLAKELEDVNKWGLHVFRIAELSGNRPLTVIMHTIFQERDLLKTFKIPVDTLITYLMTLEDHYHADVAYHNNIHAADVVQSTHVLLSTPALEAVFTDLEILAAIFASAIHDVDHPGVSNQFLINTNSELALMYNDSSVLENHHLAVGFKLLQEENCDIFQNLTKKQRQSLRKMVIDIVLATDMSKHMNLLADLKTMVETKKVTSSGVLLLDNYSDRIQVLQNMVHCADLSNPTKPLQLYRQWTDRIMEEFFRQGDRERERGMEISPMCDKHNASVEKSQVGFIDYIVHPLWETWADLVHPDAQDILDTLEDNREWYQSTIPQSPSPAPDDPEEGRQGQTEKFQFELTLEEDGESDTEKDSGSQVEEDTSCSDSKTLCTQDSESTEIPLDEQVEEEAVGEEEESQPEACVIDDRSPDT

[42] = target: T1, 3',5'-cyclic-AMP phosphodiesterase 4D; test: Inhibition of PDE4D7 (unknown origin)

concentration at 2 h [1]: 0.35 ng/mL
inhibition [4]: 51.4%
half-life [6]: 25.6 min
clearance [7]: 135 mL/min/kg
half-life [8]: 16.2 min
half-life [9]: 133 min
inhibition [11]: 53.8%
Vd [12]: 3.12 L/kg
bioavailability [14]: 3.31%
inhibition [15]: 56.6%
half-life [20]: 28.6 min
IC50 (RAW264.7 [22]): 40.9 µM
IC50 [23]: 0.00711 µM
AUC(0-t) at 24 h [25]: 619 ng·h/mL
half-life [26]: 62.1 min
AUC(0-inf) [27]: 51 ng·h/mL
IC50 (RAW264.7 [28]): 34.2 µM
half-life [29]: 25.3 min
Tmax [31]: 64.8 min
concentration at 1 h [33]: 0.34 ng/mL
AUC(0-inf) [34]: 620 ng·h/mL
AUC(0-t) at 24 h [35]: 41 ng·h/mL
half-life [36]: 296 min
Cmax [37]: 31 ng/mL
C0 at 24 h [40]: 5240 ng/mL
SMILES: O=C(NCc1ncccn1)c1csc(-c2ccc(OC(F)F)c(OCC3CC3)c2)n1
Activity (RAW264.7 [2]): Active
Activity (RAW264.7 [3]): Active
Activity (Mus musculus [5]): Active
Activity (RAW264.7 [10]): Active
IC50 (HaCaT): 38.6 µM
Activity (RAW264.7 [13]): Active
Activity (Mus musculus [16]): Dose-Dependent Effect
Activity (Mus musculus [17]): Active
Activity (Mus musculus [18]): Active
Activity (Mus musculus [19]): Active
CC50 at 24 h [21]: > 50 µM
Activity (RAW264.7 [24]): Active
Activity (Mus musculus [30]): Active
Activity (RAW264.7 [32]): Active
Activity [38]: Non-Toxic
CC50 at 24 h [39]: > 50 µM

IC50 [41]: 0.114 µM
SMILES: CCOc1cc([C@@H](CS(C)(=O)=O)N2C(=O)c3csc(NC(C)=O)c3C2=O)ccc1OC

IC50 [42]: 0.17 µM
SMILES: N#Cc1ccc(Oc2ccc3c(c2)COB3O)cc1 [CRISABOROLE]
